How the values were obtained:
Type in all cases: cell-based
[1] = target: T1, TRPV3 (G573C) (Homo sapiens, UniProt Q8NET8, G573C); test: Fura-2 calcium imaging, spontaneous Ca2+ increase in TRPV3 (G573C)-expressing HEK 293T cells; conditions: 1 µM
T1 construct: host or cells: HEK 293T (transient transfection, pEGFP-N1 co-transfected as a marker)
T1 sequence (Q8NET8 1-790 G573C): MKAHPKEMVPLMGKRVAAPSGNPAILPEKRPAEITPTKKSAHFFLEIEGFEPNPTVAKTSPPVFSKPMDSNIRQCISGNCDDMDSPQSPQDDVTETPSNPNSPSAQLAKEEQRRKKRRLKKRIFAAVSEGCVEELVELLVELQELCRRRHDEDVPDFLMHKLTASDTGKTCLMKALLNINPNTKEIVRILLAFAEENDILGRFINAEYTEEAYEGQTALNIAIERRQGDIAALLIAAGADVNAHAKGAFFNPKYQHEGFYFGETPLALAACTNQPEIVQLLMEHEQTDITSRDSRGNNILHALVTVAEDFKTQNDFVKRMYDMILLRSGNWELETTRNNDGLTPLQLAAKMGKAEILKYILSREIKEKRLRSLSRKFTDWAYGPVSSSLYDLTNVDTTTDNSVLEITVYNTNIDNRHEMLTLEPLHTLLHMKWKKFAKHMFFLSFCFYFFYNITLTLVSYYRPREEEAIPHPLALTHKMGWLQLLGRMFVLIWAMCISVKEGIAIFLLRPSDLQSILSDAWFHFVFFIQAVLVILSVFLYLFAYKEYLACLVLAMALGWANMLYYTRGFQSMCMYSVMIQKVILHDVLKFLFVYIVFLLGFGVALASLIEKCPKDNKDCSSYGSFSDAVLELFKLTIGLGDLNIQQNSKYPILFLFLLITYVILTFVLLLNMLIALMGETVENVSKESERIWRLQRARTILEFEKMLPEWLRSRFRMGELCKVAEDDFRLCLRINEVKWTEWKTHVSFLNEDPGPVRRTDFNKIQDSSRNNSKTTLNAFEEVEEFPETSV
Text: Figure 4 Alpha-mangostin inhibited the activity of hyperactive TRPV3 mutant channels and rescued mutation-induced cell death. (A) Alpha-mangostin inhibited the channel current in representative TRPV3 (G573S)- and TRPV3 (G573C)-expressing HEK 293T cells. […] Currents were normalized to the response at −100 mV before adding alpha-mangostin. (C) Alpha-mangostin inhibited TRPV3-mediated intracellular calcium increase in TRPV3 (G573S)-expressing HEK 293T cells. […] The bar graph on the right summarizes the change in the intracellular calcium rise inhibited by alpha-mangostin. […]
Subsequently, the effects of alpha-mangostin on the activities of the mutated channels were further evaluated using intracellular calcium measurements.
Fura-2 AM (Thermo Fisher Scientific) was utilized as a fluorescent indicator to measure calcium signal, as described previously. […] To measure the cytosolic Ca^2+ level, a sequential excitation of Fura-2 is performed at 340 nm and 380 nm; then, the emission signals resulting from each excitation wavelength are measured and the ratio of these signals is calculated. […] Samples were excited using a wavelength of 380 nm for 20 ms, followed by 340 nm for 100 ms, and fluorescence at 510 nm was recorded. Recorded data were then analyzed using NIS-Element AR Version 5.00.00 (Nikon Instruments, Melville, NY, USA). […]

[2] = tested on: TRPV3 (G573C)-expressing HEK 293T cells; test: cells; conditions: Homo sapiens, 24 h, read-out: Cell viability (normalized O.D., compared with mock cells)
Text: (§1) Figure 4 Alpha-mangostin inhibited the activity of hyperactive TRPV3 mutant channels and rescued mutation-induced cell death. (A) Alpha-mangostin inhibited the channel current in representative TRPV3 (G573S)- and TRPV3 (G573C)-expressing HEK 293T cells. […] Currents were normalized to the response at −100 mV before adding alpha-mangostin. (C) Alpha-mangostin inhibited TRPV3-mediated intracellular calcium increase in TRPV3 (G573S)-expressing HEK 293T cells. […] The bar graph on the right summarizes the change in the intracellular calcium rise inhibited by alpha-mangostin. Cells were perfused with calcium-free solutions containing 0 or 1 µM alpha-mangostin or 10 µM 74a before changing to 1.3 mM Ca^2+ solutions containing the same substance concentration. (D) Alpha-mangostin inhibited TRPV3-mediated intracellular calcium increase in TRPV3 (G573C)-expressing HEK 293T cells. […] The bar graph on the right summarizes the change in the intracellular calcium rise inhibited by alpha-mangostin. Cells were perfused with calcium-free solutions containing 0 or 1 µM alpha-mangostin or 10 µM 74a before changing to 1.3 mM Ca^2+ solutions containing the same substance concentration. […]
(§2) The cell counting kit-8 (CCK8; Dojindo Laboratories, Kumamoto, Japan) was employed for viability assay. […] The optical density (O.D., 450 nm) of each well was measured after incubating the cells with CCK-8 solution ([…]) for 2 h. […]

[3] = tested on: TRPV3 (G573S)-expressing HEK 293T cells; test: cells; conditions: Homo sapiens, 24 h, read-out: Cell viability (normalized O.D., compared with mock cells)
Text: as §1, §2

## COc1c(O)cc2oc3cc(O)c(CC=C(C)C)c(O)c3c(=O)c2c1CC=C(C)C [Alpha-mangostin]
[1]
  Effect on spontaneous intracellular calcium increase: potently attenuated
[2]
  viability at 1 µM: 93.5%
[3]
  viability at 1 µM: 86.8%
